{"source": "patent US9969694B2", "about": "“N-(arylalkyl)-N′-pyrazolyl-urea, thiourea, guanidine and cyanoguanidine compounds as TrkA kinase inhibitors” (Array BioPharma Inc., priority 2012, dated 2018)", "note": "pIC50: −log10 of the molar value. Counter-ions that a name gives are not always drawn.", "data": [{"target": "T1, His-tagged recombinant human TrkA (Homo sapiens, UniProt P04629)", "T1 construct": "6HIS tagged cytoplasmic domain from Invitrogen, Catalog No. PV3144; purchased Invitrogen PV3144", "T1 sequence (P04629 440-796 limits assumed)": "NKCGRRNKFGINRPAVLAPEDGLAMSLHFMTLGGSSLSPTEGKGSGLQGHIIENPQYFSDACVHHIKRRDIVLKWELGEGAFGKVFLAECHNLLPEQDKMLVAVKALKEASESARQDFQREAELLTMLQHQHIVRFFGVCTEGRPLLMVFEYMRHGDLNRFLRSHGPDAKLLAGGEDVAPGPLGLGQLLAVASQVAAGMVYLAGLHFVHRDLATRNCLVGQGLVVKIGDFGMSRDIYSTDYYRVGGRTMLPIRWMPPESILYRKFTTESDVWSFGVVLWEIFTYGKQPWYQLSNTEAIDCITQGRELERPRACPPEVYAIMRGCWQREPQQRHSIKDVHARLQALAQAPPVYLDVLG", "test": "TrkA Kinase Binding Assay (LanthaScreen Eu)", "conditions": "averaged IC50; TR-FRET binding, 60 min, 22° C.; read-out: TrkA Enzyme IC50", "how_it_was_run": "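TR-FRET tracer displacement: 5 nM His-tagged TrkA cytoplasmic domain with 4 nM Tracer 236, biotinylated anti-His and Eu-streptavidin in pH 7.5 MOPS buffer, 2% DMSO, 60 min at 22 °C. 665/615 nm emission ratio gave percent of control; IC50 from four-parameter fit.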", "values": [{"smiles": "COCc1ccc(OC(F)(F)F)c(CNC(=O)Nc2c(C)c(OCC3(F)CCNCC3)nn2-c2ccccc2)c1", "note": "[Example 70, 1-(3-((4-fluoropiperidin-4-yl)methoxy)-4-methyl-1-phenyl-1H-pyrazol-5-yl)-3-(5-(methoxymethyl)-2-(trifluoromethoxy)benzyl)urea]", "pIC50": "> 7.00"}, {"smiles": "COCc1ccc(C2CCC2)c(CNC(=O)Nc2c(C)c(-c3ccc(C)nc3)nn2-c2ccccc2)c1", "note": "[Example 8, 1-(2-cyclobutyl-5-(methoxymethyl)benzyl)-3-(4-methyl-3-(6-methylpyridin-3-yl)-1-phenyl-1H-pyrazol-5-yl)urea]", "pIC50": "> 7.00"}, {"smiles": "COCc1ccc(OC(F)(F)F)c(CNC(=O)Nc2c(C)c(OCC3CCCN(C)C3)nn2-c2ccccc2)c1", "note": "(stereo not drawn) [Example 111, 1-(5-(methoxymethyl)-2-(trifluoromethoxy)benzyl)-3-(4-methyl-3-((1-methylpiperidin-3-yl)methoxy)-1-phenyl-1H-pyrazol-5-yl)urea]", "pIC50": "> 7.00"}, {"smiles": "COCc1ccc(OC(F)(F)F)c(CNC(=O)Nc2c(C)c(OC[C@@H]3CNCCO3)nn2-c2ccccc2)c1", "note": "[Example 112, (S)-1-(5-(methoxymethyl)-2-(trifluoromethoxy)benzyl)-3-(4-methyl-3-(morpholin-2-ylmethoxy)-1-phenyl-1H-pyrazol-5-yl)urea]", "pIC50": "> 7.00"}, {"smiles": "COCc1ccc(C2CC2)c(C(C)NC(=O)Nc2c(C)c(-c3cnn(C)c3)nn2-c2ccccc2)c1", "note": "(stereo not drawn) [Example 30, 1-(1-(2-cyclopropyl-5-(methoxymethyl)phenyl)ethyl)-3-(1′,4-dimethyl-1-phenyl-1H,1′H-[3,4′-bipyrazol]-5-yl)urea]", "pIC50": "6.00 to 7.00"}, {"smiles": "COCc1cccc(C(NC(=O)Nc2c(C)c(-c3ccn(C)c(=O)c3)nn2-c2ccccc2)C2CC2)c1", "note": "(stereo not drawn) [Example 27, 1-(cyclopropyl(3-(methoxymethyl)phenyl)methyl)-3-(4-methyl-3-(1-methyl-2-oxo-1,2-dihydropyridin-4-yl)-1-phenyl-1H-pyrazol-5-yl)urea]", "pIC50": "6.00 to 7.00"}, {"smiles": "O=C(Nc1c2c(nn1-c1ccccc1)CCC2)NC(Cc1ccccc1)Cc1ccccc1Cl", "note": "(stereo not drawn) [Example 46, 1-(1-(2-chlorophenyl)-3-phenylpropan-2-yl)-3-(2-phenyl-2,4,5,6-tetrahydrocyclopenta[c]pyrazol-3-yl)urea]", "pIC50": "> 7.00"}, {"smiles": "O=C(Nc1c2c(nn1-c1ccccc1)CCC2)NC(Cc1ccccc1)c1ccccc1", "note": "(stereo not drawn) [Example 40, 1-(1,2-diphenylethyl)-3-(2-phenyl-2,4,5,6-tetrahydrocyclopenta[c]pyrazol-3-yl)urea]", "pIC50": "6.00 to 7.00"}, {"smiles": "COCc1ccc(CN)c(CNC(=O)Nc2c(C)c(-c3cnn(C)c3)nn2-c2ccccc2)c1", "note": "[Example 118, 1-(2-(aminomethyl)-5-(methoxymethyl)benzyl)-3-(1′,4-dimethyl-1-phenyl-1H,1′H-[3,4′-bipyrazol]-5-yl)urea]", "pIC50": "6.00 to 7.00"}, {"smiles": "COCc1ccc(OC(F)(F)F)c(CNC(=O)Nc2c(C)c(OCCO)nn2-c2ccccc2)c1", "note": "[Example 63, 1-(3-(2-hydroxyethoxy)-4-methyl-1-phenyl-1H-pyrazol-5-yl)-3-(5-(methoxymethyl)-2-(trifluoromethoxy)benzyl)urea]", "pIC50": "> 7.00"}, {"smiles": "COCc1ccc(OC2CCC2)c(CNC(=O)Nc2c(C)c(-c3ccc(C)nc3)nn2-c2ccccc2)c1", "note": "[Example 19, 1-(2-cyclobutoxy-5-(methoxymethyl)benzyl)-3-(4-methyl-3-(6-methylpyridin-3-yl)-1-phenyl-1H-pyrazol-5-yl)urea]", "pIC50": "> 7.00"}, {"smiles": "O=C(Nc1c2c(nn1-c1ccccc1)CCC2)NC(Cc1ccccc1)Cc1ccc(F)c(F)c1", "note": "(stereo not drawn) [Example 47, 1-(1-(3,4-difluorophenyl)-3-phenylpropan-2-yl)-3-(2-phenyl-2,4,5,6-tetrahydrocyclopenta[c]pyrazol-3-yl)urea]", "pIC50": "> 7.00"}, {"smiles": "COCc1ccc(OC(F)F)c(CNC(=O)Nc2c(C)c(-c3cnc(OC)nc3)nn2-c2ccccc2)c1", "note": "[Example 62, 1-(2-(difluoromethoxy)-5-(methoxymethyl)benzyl)-3-(3-(2-methoxypyrimidin-5-yl)-4-methyl-1-phenyl-1H-pyrazol-5-yl)urea]", "pIC50": "> 7.00"}, {"smiles": "COCc1ccc(OC(F)(F)F)c(CNC(=O)Nc2c(C)c(OCC3CN(C)C3)nn2-c2ccccc2)c1", "note": "[Example 75, 1-(5-(methoxymethyl)-2-(trifluoromethoxy)benzyl)-3-(4-methyl-3-((1-methylazetidin-3-yl)methoxy)-1-phenyl-1H-pyrazol-5-yl)urea]", "pIC50": "> 7.00"}, {"smiles": "COCc1cccc(C(NC(=O)Nc2c(C)c(-c3ccc(=O)n(C)c3)nn2-c2ccccc2)C2CC2)c1", "note": "(stereo not drawn) [Example 26, 1-(cyclopropyl(3-(methoxymethyl)phenyl)methyl)-3-(4-methyl-3-(1-methyl-6-oxo-1,6-dihydropyridin-3-yl)-1-phenyl-1H-pyrazol-5-yl)urea]", "pIC50": "6.00 to 7.00"}, {"smiles": "COCc1ccc(OC(F)(F)F)c(CNC(=O)Nc2c(C)c(OCC3CCN(C)C3)nn2-c2ccccc2)c1", "note": "(stereo not drawn) [Example 106, 1-(5-(methoxymethyl)-2-(trifluoromethoxy)benzyl)-3-(4-methyl-3-((1-methylpyrrolidin-3-yl)methoxy)-1-phenyl-1H-pyrazol-5-yl)urea hydrochloride]", "pIC50": "> 7.00"}, {"smiles": "COCc1ccc(OC(F)(F)F)c(CNC(=O)Nc2c3c(nn2-c2ccccc2)CS(=O)(=O)C3)c1", "note": "[Example 58, 1-(5,5-dioxido-2-phenyl-4,6-dihydro-2H-thieno[3,4-c]pyrazol-3-yl)-3-(5-(methoxymethyl)-2-(trifluoromethoxy)benzyl)urea]", "pIC50": "> 7.00"}, {"smiles": "COCc1ccc(OC(F)(F)F)c(CNC(=O)Nc2c3c(nn2-c2ccccc2)CSC3)c1", "note": "[Example 57, 1-(5-(methoxymethyl)-2-(trifluoromethoxy)benzyl)-3-(2-phenyl-4,6-dihydro-2H-thieno[3,4-c]pyrazol-3-yl)urea]", "pIC50": "> 7.00"}, {"smiles": "COCc1ccc(C2CCCC2)c(CNC(=O)Nc2c(C)c(-c3cnc(C)nc3)nn2-c2ccccc2)c1", "note": "[Example 12, 1-(2-cyclopentyl-5-(methoxymethyl)benzyl)-3-(4-methyl-3-(2-methylpyrimidin-5-yl)-1-phenyl-1H-pyrazol-5-yl)urea]", "pIC50": "> 7.00"}, {"smiles": "COCc1ccc(OC(F)(F)F)c(CNC(=O)Nc2c(C)c(-c3ccc(C)nc3)nn2-c2ccccc2)c1", "note": "[Example 23, 1-(5-(methoxymethyl)-2-(trifluoromethoxy)benzyl)-3-(4-methyl-3-(6-methylpyridin-3-yl)-1-phenyl-1H-pyrazol-5-yl)urea]", "pIC50": "> 7.00"}, {"smiles": "COCc1ccc(OC(F)(F)F)c(CNC(=O)Nc2c(C)c(OCC3CCNC3)nn2-c2ccccc2)c1", "note": "(stereo not drawn) [Example 71]", "pIC50": "> 7.00"}, {"smiles": "CCOc1ccc(C2CC2)c(CNC(=O)Nc2c(C)c(-c3cnn(C)c3)nn2-c2ccccc2)c1", "note": "[Example 15, 1-(2-cyclopropyl-5-ethoxybenzyl)-3-(1′,4-dimethyl-1-phenyl-1H,1′H-[3,4′-bipyrazol]-5-yl)urea]", "pIC50": "> 7.00"}, {"smiles": "COCc1ccc(OC(F)F)c(CNC(=O)Nc2c(C)c(OC3CC4(C3)CN(C)C4)nn2-c2ccccc2)c1", "note": "[Example 108, 1-(2-(difluoromethoxy)-5-(methoxymethyl)benzyl)-3-(4-methyl-3-((2-methyl-2-azaspiro[3.3]heptan-6-yl)oxy)-1-phenyl-1H-pyrazol-5-yl)urea]", "pIC50": "> 7.00"}, {"smiles": "COCc1ccc(OC(F)(F)F)c(CNC(=O)Nc2c(C)c(O[C@@H]3CCNC[C@H]3F)nn2-c2ccccc2)c1", "note": "[Example 95, 1-(3-(((3R,4R)-3-fluoropiperidin-4-yl)oxy)-4-methyl-1-phenyl-1H-pyrazol-5-yl)-3-(5-(methoxymethyl)-2-(trifluoromethoxy)benzyl)urea]", "pIC50": "> 7.00"}]}]}
